Measurements reported in ChEMBL document CHEMBL1201862, “PubChem BioAssay data set” (2004).
Values joined by “and” are separate entries in the source; they are usually repeats but may differ in a detail not shown here. Equal entries are not always repeated. Active and inactive are the calls of the source.

Tested on: not listed separately
Assay: inhibitors of firefly luciferase expression or activity, dose response, H4 neuroglioma cells, luminescence (AID 1990)
Type: functional, cell-based
Settings: not given

Compound	EC50
O=C(CN1CCOCC1)Nc1cccc(Cl)c1Cl	> 120 µM (not active)

Biological target: T1, Heat shock factor protein 1 (Mus musculus, UniProt P38532)
T1 sequence (P38532 whole entry): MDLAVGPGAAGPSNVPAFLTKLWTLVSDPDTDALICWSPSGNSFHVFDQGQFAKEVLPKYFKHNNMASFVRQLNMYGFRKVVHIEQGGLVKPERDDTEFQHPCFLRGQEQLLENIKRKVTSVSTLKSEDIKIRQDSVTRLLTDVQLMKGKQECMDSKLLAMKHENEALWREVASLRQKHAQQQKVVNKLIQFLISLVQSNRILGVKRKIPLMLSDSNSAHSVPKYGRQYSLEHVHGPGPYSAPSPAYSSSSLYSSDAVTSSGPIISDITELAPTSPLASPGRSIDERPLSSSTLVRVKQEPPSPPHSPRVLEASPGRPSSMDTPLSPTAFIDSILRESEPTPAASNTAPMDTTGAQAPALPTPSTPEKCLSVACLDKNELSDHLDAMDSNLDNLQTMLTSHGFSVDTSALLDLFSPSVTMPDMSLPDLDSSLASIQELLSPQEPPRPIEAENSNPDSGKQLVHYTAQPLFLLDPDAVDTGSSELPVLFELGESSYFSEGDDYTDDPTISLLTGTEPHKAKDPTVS
Assay: HSF1 potentiators in luciferase reporter cells, confirmation, cell-based, NIH3T3, luminescence, dose retest (AID 435004);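 also: stress induced by proteasome inhibitor MG132 added 30 min after compound; luciferase reporter driven by HSF1 response element in NIH3T3 cells; actives raise luminescence as potentiators of the MG132 stress response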
Type: functional
Settings: not given

Compound	EC50
O=C1NCC2=C1C(c1ccc(Br)cc1)Nc1ccccc1N2 (configuration not stated)	> 260 µM (inactive)

Biological target: Cytochrome P450 2C19 (Homo sapiens, UniProt P33261)
Sequence (P33261 whole entry): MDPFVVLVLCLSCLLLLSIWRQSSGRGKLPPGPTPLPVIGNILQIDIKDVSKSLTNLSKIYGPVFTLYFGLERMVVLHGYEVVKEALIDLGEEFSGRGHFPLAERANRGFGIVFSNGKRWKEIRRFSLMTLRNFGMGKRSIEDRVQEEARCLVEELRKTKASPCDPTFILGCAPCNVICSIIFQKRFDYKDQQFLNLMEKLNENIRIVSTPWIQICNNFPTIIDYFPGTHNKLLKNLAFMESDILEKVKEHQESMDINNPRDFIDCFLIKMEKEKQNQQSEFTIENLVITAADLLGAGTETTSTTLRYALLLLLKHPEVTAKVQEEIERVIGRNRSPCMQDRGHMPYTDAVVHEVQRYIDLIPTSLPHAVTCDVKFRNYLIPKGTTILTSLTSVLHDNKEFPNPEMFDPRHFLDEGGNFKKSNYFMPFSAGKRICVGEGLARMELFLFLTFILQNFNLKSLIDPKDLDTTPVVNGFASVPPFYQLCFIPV
Assay: Cytochrome panel assay with activity outcomes. Panel member name: p450-cyp2c19 Compounds with AC50 equal or less than 10 uM are considered active
Type: functional
Settings: read-out: AC50

Compound	AC50
CCN(CCCl)Cc1ccccc1Br	39.8 µM (inconclusive)
O=c1cnc2cnc(N3CCOCC3)nc2n1Cc1cccs1	31.6 µM (inconclusive)
O=C(C1CCC(=O)N1Cc1ccccc1Cl)N1CCN(c2ccc(F)cc2)CC1 (configuration not stated)	20 µM (inconclusive)
C#CCCCCCCCCCCCCCCCC(=O)O	25.1 µM (inconclusive)
C[C@H](NC(C)(C)C)C(=O)c1cccc(Cl)c1	15.8 µM (inconclusive) and 3.16 µM (inconclusive)

Biological target: Cytochrome P450 3A4 (Homo sapiens, UniProt P08684);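 also: CYP3A4 tested as one member of a cytochrome P450 panel screen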
Sequence (P08684 whole entry): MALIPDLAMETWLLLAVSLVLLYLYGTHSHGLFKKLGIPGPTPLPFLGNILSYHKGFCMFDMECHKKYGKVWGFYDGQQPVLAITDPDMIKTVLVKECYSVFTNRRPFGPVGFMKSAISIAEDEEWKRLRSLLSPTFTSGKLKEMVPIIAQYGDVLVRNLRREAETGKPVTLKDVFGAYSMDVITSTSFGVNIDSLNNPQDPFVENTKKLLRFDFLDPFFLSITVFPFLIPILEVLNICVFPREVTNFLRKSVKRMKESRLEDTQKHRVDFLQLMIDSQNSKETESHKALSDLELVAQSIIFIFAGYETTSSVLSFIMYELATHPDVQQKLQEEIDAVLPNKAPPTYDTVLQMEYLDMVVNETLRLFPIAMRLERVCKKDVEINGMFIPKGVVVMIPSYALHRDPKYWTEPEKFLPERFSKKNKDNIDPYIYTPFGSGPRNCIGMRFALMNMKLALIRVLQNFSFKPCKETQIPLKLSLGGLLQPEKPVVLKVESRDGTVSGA
Settings: not given

Compound	AC50
O=C1NCC2=C1C(c1ccc(Br)cc1)Nc1ccccc1N2 (configuration not stated)	25.1 µM (inconclusive)
O=c1cnc2cnc(N3CCOCC3)nc2n1Cc1cccs1	15.8 µM (inconclusive)
O=C(C1CCC(=O)N1Cc1ccccc1Cl)N1CCN(c2ccc(F)cc2)CC1 (configuration not stated)	12.6 µM (inconclusive)
CCn1c(SCc2cccc(C)c2)nnc1-c1ccccc1	3.16 µM (inconclusive)

Tested on: not listed separately
Assay: inhibitors of SNCA 5'UTR-driven reporter translation, confirmation, H4 neuroglioma cells, luminescence (AID 1988)
Type: functional, cell-based
Settings: not given

Compound	EC50
O=C(CN1CCOCC1)Nc1cccc(Cl)c1Cl	> 120 µM (not active)

Biological target: T2, Cytochrome P450 1A2 (Homo sapiens, UniProt P05177);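 also: PubChem cytochrome P450 panel assay, CYP1A2 panel member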
T2 sequence (P05177 whole entry): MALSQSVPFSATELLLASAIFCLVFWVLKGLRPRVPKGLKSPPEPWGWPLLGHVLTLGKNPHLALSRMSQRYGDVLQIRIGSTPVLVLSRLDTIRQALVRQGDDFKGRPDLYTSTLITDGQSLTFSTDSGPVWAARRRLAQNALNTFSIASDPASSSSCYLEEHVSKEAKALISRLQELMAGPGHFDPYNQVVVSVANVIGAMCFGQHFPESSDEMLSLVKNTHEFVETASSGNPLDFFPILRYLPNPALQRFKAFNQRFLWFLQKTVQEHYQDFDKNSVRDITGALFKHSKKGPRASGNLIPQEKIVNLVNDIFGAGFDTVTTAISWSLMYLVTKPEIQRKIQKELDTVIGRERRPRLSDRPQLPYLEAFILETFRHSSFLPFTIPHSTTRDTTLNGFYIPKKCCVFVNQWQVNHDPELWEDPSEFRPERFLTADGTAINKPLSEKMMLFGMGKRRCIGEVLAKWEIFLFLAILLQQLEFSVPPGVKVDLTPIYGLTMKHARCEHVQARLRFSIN
Settings: not given

Compound	AC50
CCN(CCCl)Cc1ccccc1Br	15.8 µM (inconclusive)
O=C(C1CCC(=O)N1Cc1ccccc1Cl)N1CCN(c2ccc(F)cc2)CC1 (configuration not stated)	2.51 µM (inconclusive)
CN(Cc1ccco1)c1ncncc1-c1ccccc1C(F)(F)F	12.6 µM (inconclusive)

Biological target: Cytochrome P450 2D6 (Homo sapiens, UniProt P10635);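 also: CYP2D6 member of a cytochrome P450 panel assay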
Sequence (P10635 whole entry): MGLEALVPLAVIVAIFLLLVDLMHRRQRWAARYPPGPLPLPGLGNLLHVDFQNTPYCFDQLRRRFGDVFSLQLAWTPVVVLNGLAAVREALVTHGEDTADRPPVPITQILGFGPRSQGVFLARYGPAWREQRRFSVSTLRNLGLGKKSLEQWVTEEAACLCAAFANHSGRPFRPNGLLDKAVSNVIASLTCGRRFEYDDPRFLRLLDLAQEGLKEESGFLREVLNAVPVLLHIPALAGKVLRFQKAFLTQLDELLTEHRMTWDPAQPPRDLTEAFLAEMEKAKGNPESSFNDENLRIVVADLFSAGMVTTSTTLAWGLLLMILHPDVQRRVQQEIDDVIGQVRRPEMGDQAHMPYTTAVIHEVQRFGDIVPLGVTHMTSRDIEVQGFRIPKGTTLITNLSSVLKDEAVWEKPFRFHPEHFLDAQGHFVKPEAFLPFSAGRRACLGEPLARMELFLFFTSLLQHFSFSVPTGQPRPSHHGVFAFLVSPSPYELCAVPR
Settings: not given

Compound	AC50
CCN(CCCl)Cc1ccccc1Br	12.6 µM (inconclusive)
COc1ccc(NC(=O)CSc2nc(C)c3c(c2C#N)CCCC3)cc1	2.24 µM (inconclusive)
CCC(C)C(NC(=O)OCc1ccccc1)C(=O)OCN1C(=O)c2ccccc2C1=O (configuration not stated)	0.631 µM (inconclusive)
C[N+]1(C)CCc2cc3c(cc2[C@@H]1[C@@H]1OC(=O)c2c1ccc1c2OCO1)OCO3	31.6 µM (inconclusive)
CCC1(C)CC(CCNS(=O)(=O)c2ccc(C)cc2)(c2ccc(C)cc2)CCO1 (configuration not stated)	28.2 µM (inconclusive)
Cc1noc(C)c1-c1ccc2ncnc(N(C)Cc3ccco3)c2c1	20 µM (inconclusive)
O=C1NCC2=C1C(c1ccc(Br)cc1)Nc1ccccc1N2 (configuration not stated)	2.24 µM (inconclusive)
O=c1cnc2cnc(N3CCOCC3)nc2n1Cc1cccs1	25.1 µM (inconclusive)
Cc1cccc(C)c1NC(=O)/C(C#N)=C/c1cccs1	6.31 µM (inconclusive)
CCCC[C@@H]1C[C@H]1C(NC(=O)c1ccco1)c1ccc(C(=O)OC)cc1 (some centres not stated)	25.1 µM (inconclusive)
C=CCNC(=O)/C(=C\C=C\c1ccccc1)NC(=O)c1ccc(OCCCC)cc1	4.47 µM (inconclusive)
COc1ccccc1-c1cncnc1NCc1cccnc1	39.8 µM (inconclusive)
O=C(C1CCC(=O)N1Cc1ccccc1Cl)N1CCN(c2ccc(F)cc2)CC1 (configuration not stated)	15.8 µM (inconclusive)
CCn1c(SCc2cccc(C)c2)nnc1-c1ccccc1	15.8 µM (inconclusive)
O=C(c1ccco1)N1CCC2(CC1)CCN(c1ccccc1)CC2	25.1 µM (inconclusive)
COc1cc(OC)cc(C(=O)NC(=S)NCCc2ccccc2)c1	10 µM (inconclusive)
CC(=O)Nc1c(S(=O)(=O)c2ccccc2)c2nc3ccccc3nc2n1Cc1ccccc1	25.1 µM (inconclusive)
CN(Cc1ccco1)c1ncncc1-c1ccccc1C(F)(F)F	20 µM (inconclusive)
O=C(c1cccc(F)c1)N1CCC[C@@]2(CCN(C(c3ccccc3)c3ccccc3)C2)C1	12.6 µM (inconclusive)
C#CCCCCCCCCCCCCCCCC(=O)O	20 µM (inconclusive)
C[N+]1(NCC[N@@+]2(C)CCc3ccccc3C2)CCCCC1	1.58 µM (inconclusive)
C[C@H](NC(C)(C)C)C(=O)c1cccc(Cl)c1	31.6 µM (inconclusive) and 6.31 µM (inconclusive)
Cc1ccc(S(=O)(=O)N[C@@H](CCCCN)C(=O)CCl)cc1	25.1 µM (inconclusive)

Biological target: Cytochrome P450 2C9 (Homo sapiens, UniProt P11712)
Sequence (P11712 whole entry): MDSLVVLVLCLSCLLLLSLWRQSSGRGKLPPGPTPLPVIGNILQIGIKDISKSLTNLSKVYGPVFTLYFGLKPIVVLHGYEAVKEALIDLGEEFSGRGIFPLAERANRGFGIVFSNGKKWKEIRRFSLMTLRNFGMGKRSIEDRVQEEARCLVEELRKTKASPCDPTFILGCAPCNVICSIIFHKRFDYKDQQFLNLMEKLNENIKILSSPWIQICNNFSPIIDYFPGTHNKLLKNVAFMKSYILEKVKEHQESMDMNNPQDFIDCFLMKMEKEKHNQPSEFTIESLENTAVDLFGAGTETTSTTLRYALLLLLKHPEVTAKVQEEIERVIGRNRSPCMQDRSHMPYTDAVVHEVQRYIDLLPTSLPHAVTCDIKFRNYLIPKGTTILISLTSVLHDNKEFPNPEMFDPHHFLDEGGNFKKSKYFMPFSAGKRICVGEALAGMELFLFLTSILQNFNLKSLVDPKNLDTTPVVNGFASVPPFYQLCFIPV
Settings: not given

Compound	AC50
COc1ccc(NC(=O)CSc2nc(C)c3c(c2C#N)CCCC3)cc1	8.91 µM (inconclusive)
O=c1cnc2cnc(N3CCOCC3)nc2n1Cc1cccs1	31.6 µM (inconclusive)
O=C(C1CCC(=O)N1Cc1ccccc1Cl)N1CCN(c2ccc(F)cc2)CC1 (configuration not stated)	25.1 µM (inconclusive)
CCn1c(SCc2cccc(C)c2)nnc1-c1ccccc1	35.5 µM (inconclusive)
